Consider 16 compounds from paper PMC10444817, “New proapoptotic chemotherapeutic agents based on the quinolone-3-carboxamide scaffold acting by VEGFR-2 inhibition” (Scientific Reports, 2023).

For one data set, the target named is VEGFR-2 (Homo sapiens, UniProt P35968). As to the kind of experiment: VEGFR-2 kinase inhibition assay (Kinase-Glo MAX luminescence kit, BPS Bioscience). As to conditions: for IC50: VEGFR-2 inhibitory activity IC50, average of 3 independent runs ± SE; for Fold increase in VEGFR-2 inhibitory activity compared to para methyl substituted derivatives 10b and 10k: 4-isopropyl vs 4-CH3 analogue.
Chain of VEGFR-2 (P35968 20-1356): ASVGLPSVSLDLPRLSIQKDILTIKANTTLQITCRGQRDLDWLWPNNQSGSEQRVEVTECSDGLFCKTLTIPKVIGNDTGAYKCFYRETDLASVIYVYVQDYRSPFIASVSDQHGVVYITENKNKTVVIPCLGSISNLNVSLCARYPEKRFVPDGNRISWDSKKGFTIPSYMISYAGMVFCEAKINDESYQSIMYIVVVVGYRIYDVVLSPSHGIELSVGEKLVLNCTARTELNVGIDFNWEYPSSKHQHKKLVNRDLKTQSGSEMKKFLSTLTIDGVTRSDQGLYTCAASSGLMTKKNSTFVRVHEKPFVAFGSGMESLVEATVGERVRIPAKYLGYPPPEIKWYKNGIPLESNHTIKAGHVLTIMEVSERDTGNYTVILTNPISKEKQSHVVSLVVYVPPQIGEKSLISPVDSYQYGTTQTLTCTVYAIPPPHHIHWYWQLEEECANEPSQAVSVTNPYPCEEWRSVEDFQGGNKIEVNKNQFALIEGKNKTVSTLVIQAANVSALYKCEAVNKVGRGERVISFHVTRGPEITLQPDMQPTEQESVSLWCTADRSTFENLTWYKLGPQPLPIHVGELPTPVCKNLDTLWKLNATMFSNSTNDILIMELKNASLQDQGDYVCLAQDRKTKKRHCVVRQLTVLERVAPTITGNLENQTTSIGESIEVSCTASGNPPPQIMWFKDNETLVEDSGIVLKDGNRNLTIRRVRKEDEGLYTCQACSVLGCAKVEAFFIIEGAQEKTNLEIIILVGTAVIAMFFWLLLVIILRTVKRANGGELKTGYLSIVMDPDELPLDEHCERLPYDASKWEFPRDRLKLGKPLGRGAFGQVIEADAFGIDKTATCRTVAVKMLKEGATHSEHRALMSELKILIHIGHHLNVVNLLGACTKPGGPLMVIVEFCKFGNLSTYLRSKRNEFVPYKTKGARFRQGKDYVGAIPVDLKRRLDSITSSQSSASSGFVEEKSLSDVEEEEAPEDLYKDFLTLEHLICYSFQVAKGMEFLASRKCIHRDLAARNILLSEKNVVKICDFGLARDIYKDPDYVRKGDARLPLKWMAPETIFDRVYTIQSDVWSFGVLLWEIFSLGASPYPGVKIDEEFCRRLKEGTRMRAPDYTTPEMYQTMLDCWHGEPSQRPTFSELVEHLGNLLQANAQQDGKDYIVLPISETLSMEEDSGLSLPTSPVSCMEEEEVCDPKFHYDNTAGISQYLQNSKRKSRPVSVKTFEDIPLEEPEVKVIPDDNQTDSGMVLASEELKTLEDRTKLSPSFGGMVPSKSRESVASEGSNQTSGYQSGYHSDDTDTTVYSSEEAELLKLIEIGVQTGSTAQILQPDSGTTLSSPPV

Data set [1] deals with HepG2 cells. The data set is described as follows: MTT cytotoxicity against HepG2 tumor cell line. The settings on record: read-out: Cytotoxic activity against HepG2 cell line IC50, 48 h, average of 3 independent runs ± SE.
Another data set relates to Bax. The data set is described as follows: Western blotting of Bax protein expression in HepG2 cells. Type of data set: cell-based, human. The settings on record: HepG2, 48 h at IC50 concentration; normalized to β-actin. The method, then: (§1) Western blotting was performed to assess the relative normalized protein expression of the apoptotic proteins Bax and Caspase-7 in HepG2 cancer cells when pre-treated for 48 h with compound 10i at its IC50 concentration in comparison to non-treated HepG2 cells. […] The current findings provide strong evidence for the positive apoptotic activity of compound 10i in HepG2 cells that accompanies its inhibitory activity on cell proliferation.
(§2) Cells were harvested and washed with phosphate buffer saline (PBS). The cells were then lysed in 10 mM Tris–HCl, 100 mM NaCl, 0.5% Triton X-100, pH 7.6 with EDTA-free Protease Inhibitor Cocktail. This was followed by a centrifugation step at 13,000g for 20 min at 4 °C and direct transfer to sodium dodecyl sulfate–polyacrylamide gel (SDS–PAGE). Western blot analysis was performed using primary antibodies against the target proteins and HRP-conjugated secondary antibodies (Table 12). The chemiluminescence reaction was performed using the ECL western blot HRP substrate (Pierce, Thermo Fisher Scientific). Finally, densitometric quantification of Western blot protein bands were performed with IMAGEJ Software.

For another data set, the system named is Caspase-7. As to the kind of experiment: Western blotting of Caspase-7 protein expression in HepG2 cells. It is filed as cell-based, human. As to conditions: HepG2, 48 h at IC50 concentration; normalized to β-actin. The protocol:
as §1, §2
(A western blot detects proteins with antibodies after separation by electrophoresis.)

Data set [2] concerns Transformed Human Liver Epithelial-2 normal cell line (THLE-2). As to the kind of experiment: MTT cytotoxicity against THLE-2 normal liver cell line. The settings on record: CC50 (THLE-2) / IC50 (HepG2). Type of data set: cell-based. The protocol:
(§3) The produced formazan was measured by means of the spectrophotometer ROBONIK P2000 at a wavelength of 570 nm. The Cytotoxic concentration values (CC50) of the assessed compounds were reported as the mean of three independent runs ± SE[69].

Experiment in data set [3]: as above
Type of data set: cell-based, human. As to conditions: human, THLE-2 normal liver epithelial cells; MTT, 48 h; measured in triplicates; read-out: CC50 cytotoxic activity against THLE-2 normal cell line. The method, then: as §3

For data set [4], the system named is HepG2 cells. As to the kind of experiment: Cell cycle analysis by DNA flow cytometry. Type of data set: cell-based, human. The settings on record: HepG2, 48 h at IC50 concentration; frequency of cells, triplicate ± SD. The method, then:
DNA flow cytometry was used to analyze the cell cycle kinetics of HepG2 cancer cells when pre-treated for 48 h with compound 10i at its IC50 concentration. Non-treated HepG2 cells were considered as negative control.
The assay was performed as previously mentioned. In brief, HepG2 cells were pre-incubated with compound 10i at its IC50 concentration for 48 h. Then, about 10^5 cells were attained by trypsinization and washed with phosphate buffer saline (PBS). This was followed by a resuspension step with 60% ice-cold ethanol and incubation till fixation occurs. The fixed cells were washed again and resuspended in a buffer that included 50 μg/mL RNAase A and 10 μg/mL propidium iodide. Finally, cells were incubated at 37 °C in the dark for 20 min and analyzed for the cell cycle kinetics using flow cytometry where FL2 (λex/em 535/617 nm) was used as the signal detector (ACEA Novocyt flowcytometer, ACEA Biosciences Inc., San Diego, CA, USA). A query of 12,000 events was recommended for each sample. ACEA NovoExpress software (ACEA Biosciences Inc., San Diego, CA, USA) was used for analysis.
For orientation: Flow cytometry measures light scatter and fluorescence of single cells or particles in a stream.

For another data set, the system named is VEGFR-2 gene. The data set is described as follows: RT-qPCR of VEGFR-2 gene expression in HepG2 cells. Type of data set: cell-based, human. As to conditions: HepG2, 48 h at IC50 concentration; normalized to β-actin. The protocol: RT-qPCR was performed to assess the relative normalized gene expression of VEGFR-2 gene in HepG2 cancer cells when pre-treated for 48 h with compound 10i at its IC50 concentration utilizing non-treated HepG2 cells as negative control.
Total RNA was isolated from both 10i-treated and untreated HepG2 cell line pellets using Qiagen RNeasy Mini kit Cat# No. 74104 according to the manufacturer’s guidelines. Then, quantification and quality assessment of the isolated RNA samples were determined by the Nanodrop spectrophotometer at A230, A260 and A280.
cDNA synthesis was performed for RNA using the Promega cDNA Synthesis AMV Reverse Transcriptase Kit (cat# M5108) according to the manufacturer’s instructions. The cDNA synthesis was performed on Bio-Rad 100 Thermal cycler.
Primers for the VEGFR-2 gene were designed and synthesized followed by primer validation and optimization of PCR amplification conditions. RT-qPCR expression analysis for the required genes (ß-actin and VEGFR-2) has been done using the Qiagen Quanti Nova SYBR Green PCR Kit (cat # 208052).
For orientation: Quantitative PCR measures a nucleic acid by following its amplification.

Each structure is given as a SMILES string. Several values for one entry are separate records, joined by “and”; a condition that tells them apart may be missing. Equal values may be shown once.

The IC50 is the concentration at which inhibition is half-maximal. The melting point is the temperature of the solid-liquid transition. As for `Cc1ccccc1NC(=O)Nc1ccc(NC(=O)c2c[nH]c3ccc(F)cc3c2=O)cc1` [Compound 10m, 6-Fluoro-4-oxo-N-(4-(3-(o-tolyl)ureido)phenyl)-1,4-dihydroquinoline-3 carboxamide], the melting point is > 300 °C. Moreover, the IC50 at VEGFR-2 amounted to 0.181 ± 1e-05 µM. For the same compound, in the data set on HepG2 cells [1], the IC50 stood at 13 ± 0.75 µM.
Take `Cc1ccc(NC(=O)Nc2ccc(NC(=O)c3c[nH]c4ccc(Cl)cc4c3=O)cc2)cc1` [Compound 10b, 6-Chloro-4-oxo-N-(4-(3-(p-tolyl)ureido)phenyl)-1,4-dihydroquinoline-3-carboxamide]: the melting point was > 300 °C. At VEGFR-2, the IC50 was determined as 0.578 ± 3e-05 µM. Moreover, the IC50 with HepG2 cells [1] was found to be 50.8 ± 3.16 µM.
In the case of `Cc1cccc(NC(=O)Nc2ccc(NC(=O)c3c[nH]c4ccc(Cl)cc4c3=O)cc2)c1` [Compound 10c, 6-Chloro-4-oxo-N-(4-(3-(m-tolyl)ureido)phenyl)-1,4-dihydroquinoline-3-carboxamide], the melting point was > 300 °C. On VEGFR-2, this compound had an IC50 of 0.169 ± 1e-05 µM. Besides, in the data set with HepG2 cells [1], the IC50 is 4.14 ± 0.25 µM.
The like results for `Cc1cccc(NC(=O)Nc2ccc(NC(=O)c3c[nH]c4ccc(F)cc4c3=O)cc2)c1` [Compound 10l, 6-Fluoro-4-oxo-N-(4-(3-(m-tolyl)ureido)phenyl)-1,4-dihydroquinoline-3-carboxamide] were, in that order, > 300 °C, 0.317 ± 1e-05 µM and 14.2 ± 0.82 µM.
On to `Cc1ccccc1NC(=O)Nc1ccc(NC(=O)c2c[nH]c3ccc(Cl)cc3c2=O)cc1` [Compound 10d, 6-Chloro-4-oxo-N-(4-(3-(o-tolyl)ureido)phenyl)-1,4-dihydroquinoline-3-carboxamide], for which the melting point is > 300 °C. The compound further had an IC50 on VEGFR-2 of 0.069 ± 2e-05 µM. The IC50 in the data set with HepG2 cells [1] came to 1.07 ± 0.06 µM.
On to `O=C(Nc1ccc(NC(=O)c2c[nH]c3ccc(Cl)cc3c2=O)cc1)Nc1ccc2ncsc2c1` [Compound 10h, N-(4-(3-(Benzo[d]thiazol-6-yl)ureido)phenyl)-6-chloro-4-oxo-1,4-dihydroquinoline-3-carboxamide], for which the melting point is > 300 °C. This compound also registered an IC50 at VEGFR-2 of 0.937 ± 4e-05 µM. For the same compound, the “Fold decrease in VEGFR-2 inhibitory activity” value at VEGFR-2 (benzothiazole derivative, comparator not named) is reported as “about 5.5 fold”. For the same compound, in the data set on HepG2 cells [1], the IC50 worked out at 14.9 ± 0.52 µM.
With `N#Cc1ccc(NC(=O)Nc2ccc(NC(=O)c3c[nH]c4ccc(Cl)cc4c3=O)cc2)cc1` [Compound 10g, 6-Chloro-N-(4-(3-(4-cyanophenyl)ureido)phenyl)-4-oxo-1,4-dihydroquinoline-3-carboxamide], the melting point was > 300 °C. The compound further registered an IC50 on VEGFR-2 of 1.603 ± 6e-05 µM. The IC50 in the data set with HepG2 cells [1] was found to be 43.1 ± 2.59 µM.
As usually defined, the CC50 is the concentration that lowers cell viability or growth by half. For the compound `CC(C)c1ccc(NC(=O)Nc2ccc(NC(=O)c3c[nH]c4ccc(Cl)cc4c3=O)cc2)cc1` [Compound 10i, 6-Chloro-N-(4-(3-(4-isopropylphenyl)ureido)phenyl)-4-oxo-1,4-dihydroquinoline-3-carboxamide], the “Induction of Bax protein expression compared to negative control” value in the data set with Bax is listed as “up to 20 folds”. The “Induction of Caspase-7 protein expression compared to negative control” value in the data set with Caspase-7 is listed as ≤ 6 folds. Also, the “Selectivity index (SI)” value in data set [2] was 13.13. In addition, the CC50 at 48 h in data set [3] came out at 21 µM. At VEGFR-2, the “Fold increase in VEGFR-2 inhibitory activity compared to para methyl substituted derivatives 10b and 10k” value is “more than 16 fold”; half-maximal inhibition (IC50) required 0.036 ± 1e-05 µM. Also, in the data set with HepG2 cells [4], the “Freq G1” value is recorded as “***2.067 ± 0.189”, the “Freq G2” value was “***49.80 ± 1.466”, the “Freq S” value is “***7.920 ± 0.2117” and the “Freq Sub-G1” value is listed as “***20.80 ± 0.7102”. The IC50 in the data set with HepG2 cells [1] turned out to be 1.6 ± 0.17 µM. Further, the “Decrease of VEGFR-2 gene expression compared to untreated cells” value with VEGFR-2 gene is listed as 84%.
Regarding `Cc1ccc(NC(=O)Nc2ccc(NC(=O)c3c[nH]c4ccc(F)cc4c3=O)cc2)cc1` [Compound 10k, 6-Fluoro-4-oxo-N-(4-(3-(p-tolyl)ureido)phenyl)-1,4-dihydroquinoline-3-carboxamide], the melting point is > 300 °C. Further, the IC50 against VEGFR-2 came to 2.226 ± 9e-05 µM. Also, the IC50 in the data set with HepG2 cells [1] is 34.2 ± 2.06 µM.
For the compound `O=C(Nc1ccc(F)cc1)Nc1ccc(NC(=O)c2c[nH]c3ccc(Cl)cc3c2=O)cc1` [Compound 10e, 6-Chloro-N-(4-(3-(4-fluorophenyl)ureido)phenyl)-4-oxo-1,4-dihydroquinoline-3-carboxamide], the melting point was > 300 °C. For the same compound, the IC50 against VEGFR-2 was 0.197 µM and 0.179 µM. For the same compound, the IC50 in the data set with HepG2 cells [1] stood at 0.88 ± 0.05 µM.
Regarding `O=C(Nc1ccc(F)cc1)Nc1ccc(NC(=O)c2c[nH]c3ccc(F)cc3c2=O)cc1` [Compound 10n, 6-Fluoro-N-(4-(3-(4-fluorophenyl)ureido)phenyl)-4-oxo-1,4-dihydroquinoline-3-carboxamide], the melting point was > 300 °C. At VEGFR-2, this compound registered an IC50 of 0.257 ± 1e-05 µM. Besides, in the data set on HepG2 cells [1], the IC50 is 2.88 ± 0.14 µM.
With `O=C(Nc1ccc(NC(=O)c2c[nH]c3ccc(Cl)cc3c2=O)cc1)Nc1cccc(C(F)(F)F)c1` [Compound 10f, 6-Chloro-4-oxo-N-(4-(3-(3-(trifluoromethyl)phenyl)ureido)phenyl)-1,4-dihydroquinoline-3-carboxamide], the melting point is > 300 °C. The same compound displayed an IC50 against VEGFR-2 of 0.1045 ± 5e-06 µM. For the same compound, the IC50 in the data set with HepG2 cells [1] came to 62 ± 3.87 µM.
`O=C(Nc1ccccc1)Nc1ccc(NC(=O)c2c[nH]c3ccc(Cl)cc3c2=O)cc1` [Compound 10a, 6-Chloro-4-oxo-N-(4-(3-phenylureido)phenyl)-1,4-dihydroquinoline-3-carboxamide]: the melting point is > 300 °C. On VEGFR-2, this compound came in with an IC50 of 0.138 ± 1e-05 µM. In the data set with HepG2 cells [1], the IC50 is 4.6 ± 0.28 µM.
The corresponding values for `O=C(Nc1ccccc1)Nc1ccc(NC(=O)c2c[nH]c3ccc(F)cc3c2=O)cc1` [Compound 10j, 6-Fluoro-4-oxo-N-(4-(3-phenylureido)phenyl)-1,4-dihydroquinoline-3-carboxamide] are > 300 °C, 0.34 ± 1e-05 µM and 41.9 ± 2.52 µM.
Regarding `CC(C)c1ccc(NC(=O)Nc2ccc(NC(=O)c3c[nH]c4ccc(F)cc4c3=O)cc2)cc1` [Compound 10p, 6-Fluoro-N-(4-(3-(4-isopropylphenyl)ureido)phenyl)-4-oxo-1,4-dihydroquinoline-3-carboxamide], the melting point was > 300 °C. Besides, at VEGFR-2, the “Fold increase in VEGFR-2 inhibitory activity compared to para methyl substituted derivatives 10b and 10k” value is recorded as “more than 16 fold”; the IC50 was determined as 0.097 ± 1e-05 µM. In addition, the IC50 in the data set on HepG2 cells [1] amounted to 8.14 ± 0.47 µM.
Turning to `O=C(Nc1ccc(NC(=O)c2c[nH]c3ccc(F)cc3c2=O)cc1)Nc1cccc(C(F)(F)F)c1` [Compound 10o, 6-Fluoro-4-oxo-N-(4-(3-(3-(trifluoromethyl)phenyl)ureido)phenyl)-1,4-dihydroquinoline-3-carboxamide], the melting point was > 300 °C. For the same compound, the “Selectivity index (SI)” value in data set [2] is listed as 5.52. In addition, the CC50 at 48 h in data set [3] was found to be 15.2 µM. The IC50 at VEGFR-2 stood at 0.038 ± 2e-05 µM. Besides, the IC50 in the data set with HepG2 cells [1] turned out to be 2.76 ± 0.1 µM.
